Measured values: patent US9976141B2, “Compositions and methods for inhibiting gene expression of Hif2alpha” (Arrowhead Madison Inc., priority 2015, dated 2018)
Strand notation (5' to 3'): a small letter for the sugar, then the base; units joined by * are phosphorothioate-linked, units joined directly phosphodiester-linked; [ ] holds rarer units or linkages, { } end groups; capitals alone tell only the bases. d = 2'-deoxy (DNA); m = 2'-O-methyl; f = 2'-fluoro

Test system: human EPAS1 (Hif2α) cDNA in psiCHECK2 (Renilla luciferase/EPAS1 fusion mRNA) in Hep3B cells
Assay: Efficacy screen of Hif2α RNAi triggers in vitro, dual-luciferase reporter assay (1 nM and 0.1 nM)
Type: cell-based
Details: Hep3B cells co-transfected with EPAS1-psiCHECK2, Renilla luciferase normalized to firefly luciferase
Method in brief: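 Knockdown read by dual-luciferase assay: Renilla signal from the Renilla/EPAS1 fusion transcript divided by firefly luciferase expressed from the same plasmid. Triggers (modified canonical siRNAs, 1 nM or 0.1 nM) were co-transfected with 25 ng reporter plasmid per well into human hepatocellular carcinoma Hep3B cells.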

Substance | Relative Rluc-Hif2α (0.1 nM RNAi trigger) | Relative Rluc-Hif2α (1 nM RNAi trigger)
2407 (sense fAmCfGmUfAmAfCmGfAmUfUmUfCmAfUmGfAmAfAdT; antisense dTfUmUfCmAfUmGfAmAfAmUfCmGfUmUfAmCfGmUdT*dT; siRNA) [compound 2407] | 0.222 ± 0.027 | 0.124 ± 0.021
2408 (sense fUmAfUmUfAmUfAmUfUmGfUmCfGmAfAmUfUmCfAdT; antisense dTfGmAfAmUfUmCfGmAfCmAfAmUfAmUfAmAfUmAdT*dT; siRNA) [compound 2408] | 0.730 ± 0.045 | 0.282 ± 0.004
2254 (sense fUmCfGmUfGmAfGmAfAmCfCmUfGmAfGmUfCmUfAdT; antisense dTfAmGfAmCfUmCfAmGfGmUfUmCfUmCfAmCfGmAdT*dT; siRNA) [compound 2254] | 0.756 ± 0.080 | 0.641 ± 0.054
2315 (sense fGmGfCmUfCmGfAmGfGmCfCmCfAmGfAmCfGmUfAdT; antisense dTfAmCfGmUfCmUfGmGfGmCfCmUfCmGfAmGfCmCdT*dT; siRNA) [compound 2315] | 0.781 ± 0.206 | 0.876 ± 0.099
2309 (sense fUmUfUmUfGmGfGmCfCmCfAmCfAmAfAmGfUmGfAdT; antisense dTfCmAfCmUfUmUfGmUfGmGfGmCfCmCfAmAfAmAdT*dT; siRNA) [compound 2309] | 0.823 ± 0.096 | 1.081 ± 0.135
2266 (sense fCmUfGmAfUmUfGmGfUmUfAmCfCmAfCmCfCmUfAdT; antisense dTfAmGfGmGfUmGfGmUfAmAfCmCfAmAfUmCfAmGdT*dT; siRNA) [compound 2266] | 0.808 ± 0.062 | 0.368 ± 0.046
2270 (sense fUmGfAmAfUmUfCmUfAmCfCmAfUmGfCmGfCmUfAdT; antisense dTfAmGfCmGfCmAfUmGfGmUfAmGfAmAfUmUfCmAdT*dT; siRNA) [compound 2270] | 0.658 ± 0.149 | 0.613 ± 0.147
2364 (sense fGmGfUmCfUmGfAmUfGmGfCmAfCmGfUmUfGmUfAdT; antisense dTfAmCfAmAfCmGfUmGfCmCfAmUfCmAfGmAfCmCdT*dT; siRNA) [compound 2364] | 1.070 ± 0.042 | 0.855 ± 0.282
2256 (sense fGmCfGmGfGmAfCmUfUmCfUmUfCmAfUmGfAmGfAdT; antisense dTfCmUfCmAfUmGfAmAfGmAfAmGfUmCfCmCfGmCdT*dT; siRNA) [compound 2256] | 0.796 ± 0.028 | 0.765 ± 0.124
2333 (sense fGmGfAmCfUmUfAmCfCmUfGmGfCmAfGmAfCmUfAdT; antisense dTfAmGfUmCfUmGfCmCfAmGfGmUfAmAfGmUfCmCdT*dT; siRNA) [compound 2333] | 0.684 ± 0.147 | 0.291 ± 0.019
2379 (sense fUmAfCmCfAmUfGmAfGmAfUmGfGmUfUmUfAmGfAdT; antisense dTfCmUfAmAfAmCfCmAfUmCfUmCfAmUfGmGfUmAdT*dT; siRNA) [compound 2379] | 0.858 ± 0.098 | 0.939 ± 0.204
2259 (sense fUmCfAmCfCmAfAmCfAmGfAmGfGmCfCmGfUmAfAdT; antisense dTfUmAfCmGfGmCfCmUfCmUfGmUfUmGfGmUfGmAdT*dT; siRNA) [compound 2259] | 0.743 ± 0.086 | 0.836 ± 0.110
2290 (sense fAmGfUmAfAmCfUmUfCmCfUmAfUmUfCmAfCmCfAdT; antisense dTfGmGfUmGfAmAfUmAfGmGfAmAfGmUfUmAfCmUdT*dT; siRNA) [compound 2290] | 0.698 ± 0.155 | 0.353 ± 0.036
2260 (sense fCmAfCmCfAmAfCmAfGmAfGmGfCmCfGmUfAmCfAdT; antisense dTfGmUfAmCfGmGfCmCfUmCfUmGfUmUfGmGfUmGdT*dT; siRNA) [compound 2260] | 0.861 ± 0.031 | 1.030 ± 0.187
2247 (sense fGmCfUmAfAmCfAmGfGmAfCmAfUmAfGmUfAmUfAdT; antisense dTfAmUfAmCfUmAfUmGfUmCfCmUfGmUfUmAfGmCdT*dT; siRNA) [compound 2247] | 0.439 ± 0.082 | 0.231 ± 0.048
2317 (sense fCmUfCmGfAmGfGmCfCmCfAmGfAmCfGmUfGmCfAdT; antisense dTfGmCfAmCfGmUfCmUfGmGfGmCfCmUfCmGfAmGdT*dT; siRNA) [compound 2317] | 0.842 ± 0.239 | 0.843 ± 0.157
2345 (sense fCmCfAmAfCmGfUmAfUmGfUmGfGmUfUmAfUmCfAdT; antisense dTfGmAfUmAfAmCfCmAfCmAfUmAfCmGfUmUfGmGdT*dT; siRNA) [compound 2345] | 0.296 ± 0.096 | 0.129 ± 0.026
2344 (sense fUmCfCmAfAmCfGmUfAmUfGmUfGmGfUmUfAmUfAdT; antisense dTfAmUfAmAfCmCfAmCfAmUfAmCfGmUfUmGfGmAdT*dT; siRNA) [compound 2344] | 0.570 ± 0.071 | 0.276 ± 0.033
2399 (sense fCmCfUmAfCmCfUmGfUmCfAmAfCmGfUmAfAmCfAdT; antisense dTfGmUfUmAfCmGfUmUfGmAfCmAfGmGfUmAfGmGdT*dT; siRNA) [compound 2399] | 0.784 ± 0.071 | 0.418 ± 0.081
2231 (sense fGmAfGmAfCmUfGmUfAmUfGmGfUmCfAmGfCmUfAdT; antisense dTfAmGfCmUfGmAfCmCfAmUfAmCfAmGfUmCfUmCdT*dT; siRNA) [compound 2231] | 0.544 ± 0.368 | 0.491 ± 0.198
2304 (sense fAmUfGmCfCmGfGmAfAmGfCmAfAmAfGmCfAmUfAdT; antisense dTfAmUfGmCfUmUfUmGfCmUfUmCfCmGfGmCfAmUdT*dT; siRNA) [compound 2304] | 0.528 ± 0.116 | 0.302 ± 0.025
2391 (sense fAmGfAmAfAmUfUmCfCmUfUmAfGmUfCmAfUmGfAdT; antisense dTfCmAfUmGfAmCfUmAfAmGfGmAfAmUfUmUfCmUdT*dT; siRNA) [compound 2391] | 0.273 ± 0.006 | 0.129 ± 0.015
2415 (sense fUmGfUmAfUmGfGmGfAmGfCmUfUmAfAmCfUmUfAdT; antisense dTfAmAfGmUfUmAfAmGfCmUfCmCfCmAfUmAfCmAdT*dT; siRNA) [compound 2415] | 0.180 ± 0.097 | 0.119 ± 0.015
2324 (sense fGmGfAmCfUmAfCmAfGmCfCmUfGmUfCmGfUmCfAdT; antisense dTfGmAfCmGfAmCfAmGfGmCfUmGfUmAfGmUfCmCdT*dT; siRNA) [compound 2324] | 1.081 ± 0.293 | 1.046 ± 0.208
2342 (sense fCmAfAmCfUmCfCmAfAmCfGmUfAmUfGmUfGmGfAdT; antisense dTfCmCfAmCfAmUfAmCfGmUfUmGfGmAfGmUfUmGdT*dT; siRNA) [compound 2342] | 1.058 ± 0.064 | 0.549 ± 0.041
2238 (sense fUmCfGmGfCmGfUmCfUmGfAmAfCmGfUmCfUmCfAdT; antisense dTfGmAfGmAfCmGfUmUfCmAfGmAfCmGfCmCfGmAdT*dT; siRNA) [compound 2238] | 0.208 ± 0.023 | 0.148 ± 0.024
